The values that follow come from US10351548B2, “2-oxo-1,2-dihydropyridine-3-carboxamide compounds and their use as inhibitors of PDK1” (INTERNATIONAL SOCIETY FOR DRUG DEVELOPMENT S.R.L., priority 2015, dated 2019).

One test addresses PDK1 Direct kinase (Homo sapiens (Human), UniProt O15530). Put plainly: Kinase-specific FRET-based Z'-LYTE assay against PDK1 Direct kinase. Format: biochemical. The protocol:
The compounds of Formula (I) and (II) were tested in the biological test named Kinase-specific Z′-LYTE® assay (Invitrogen Corporation, Life Technologies).

For another test, the system named is U87MG cells. Put plainly: U87MG cell proliferation, MTS assay. Format: cell-based, human. The following applies: for IC50: Homo sapiens, U-87 MG, 72 h, MTS assay. The protocol: The U87MG cell line was obtained from the National Institute for Cancer Research of Genoa (Italy) and cultured in DMEM 10% FBS and 2 mM glutamine. To isolate GSCs, approximately 2.0×10^6 cells were suspended in 1 mL of a defined serum-free Neural Stem Cell (NSC) medium (Daniele, S., et al., Modulation of A1 and A2B adenosine receptor activity: a new strategy to sensitise glioblastoma stem cells to chemotherapy. Cell death & disease, 2014. 5(11): p. e1539). After 3-4 days of culture, the neurospheres were collected, suspended in NSC medium, dissociated into single cells, and plated for the assays. For the long-term treatment of cells, NSC or complete medium containing drugs was replaced every two to three days.
The human U87MG cells or GSCs were seeded at a density of 3×10^3 cells/well. After 24 h, the cells were treated from one to seven days with fresh growth medium containing different concentrations of SA16, SA23 or IB35. Following the treatment period, cell proliferation was determined using the MTS assay according to manufacturer's instruction. The absorbance of formazan at […] was measured in a colorimetric assay with an automated plate reader (Victor Wallac 2, Perkin Elmer). The results were calculated by subtracting the mean background from the values obtained from each evaluation and were expressed as the percentage of the control (untreated cells). Sigmoid dose-response curve was generated, from which the IC50 values were derived.
As representative GBM cell line, the above U87MG cells were used; this human cell line resulted an appropriate model to study the effects of PDK1 inhibition, because it is deficient for the tumour suppressor phosphatase and tensin homologue (PTEN), a negative regulator of the PI3K/AKT pathway (Wang, S. I., et al., Somatic mutations of PTEN in glioblastoma multiforme. Cancer research, 1997. 57(19): p. 4183-4186). To examine the effects of SA16, SA23 and IB35 on GBM cell growth/survival, U87MG cells were incubated with different concentrations of the new compounds (1 nM-10 μM) for 24 and 72 h. Specifically, U87MG cells were treated in complete medium with different concentrations of SA16, SA23 or IB35 (1 nM-10 μM) for 24 h (A) or 72 h (B). At the end of treatment, cell proliferation was measured using the MTS assay. The data are expressed as a percentage with respect to that of untreated cells (control), which was set to 100%, and are the mean values±SEM of three independent experiments, each performed in duplicate. The significance of the differences reported in FIGS. 1 and 2 was determined with a one-way ANOVA with Bonferroni post-test (* p<0.05, **p<0.01, *** p<0.001 vs. control cells).
(Tetrazolium assays rely on reduction of a dye to a coloured formazan, in cell work by metabolically active cells.)

In test [1] the test system is AKT phosphorylation at Thr308 in U87MG cells. Put plainly: PDK1 activity in U87MG cells, (T308)AKT phosphorylation ELISA. It counts as cell-based, human. The following applies: for inhibition at 10 µM: Homo sapiens, U-87 MG, U87MG cells, read-out: peak of inhibition (percentage of PDK1 inhibition); for time of peak of inhibition of (T308)AKT phosphorylation / inhibition of AKT phosphorylation at Thr308: U87MG, 10 μM; for inhibition of AKT phosphorylation at Thr308: 0-120 min. Here is the method: (§1) U87MG cells were cultured in 96-well microplates (5.000 cells/well), and treated for different times with 10 μM SA16, SA23 or IB35. At the end of the treatment period, the GSCs were centrifuged at 500×g for 3 minutes; cells were washed twice using fresh saline, and rapidly fixed with 4% (for adherent U87MG cells) or 8% (for suspension GSCs) formaldehyde to preserve activation of specific protein modification. The activity of PDK1 was assessed measuring the levels of phosphorylated AKT on Thr308, using a specific primary antibodies. The subsequent incubation with a secondary HRP-conjugated antibody and the developing solution allowed the colorimetric quantification of the levels of phosphorylated protein. The relative number of cells in each well was then determined using the Crystal-Violet assay. The results were calculated by subtracting the mean background value from the values obtained under each test condition: values were normalised to the number of cells in each well and were expressed as the percentages of the control (untreated cells) values.
280(4): p. 1107-1115). […] At the end of the treatment periods, the levels of (T308)AKT phosphorylation was evaluated using an ELISA kit, as described above. The data reported in FIG. 5 were expressed as the percentage of phosphorylated (T308)AKT relative to those of untreated cells (control), which were set at 100%, and were the mean values±SEM of three independent experiments performed in triplicate.
Background: An ELISA detects its analyte on a solid surface through an enzyme-linked reagent.

Test [2] has as its system AKT phosphorylation at Thr308 in GSCs. As to the kind of experiment: PDK1 activity in GSCs, (T308)AKT phosphorylation ELISA. Format: cell-based, human. The settings on record: for time of peak of inhibition of AKT phosphorylation at Thr308 / inhibition of AKT phosphorylation at Thr308: 10 μM; for inhibition of AKT phosphorylation at Thr308: 0-120 min; for inhibition at 10 µM: Homo sapiens, read-out: peak of inhibition (percentage of PDK1 inhibition). The protocol: as §1
The effects of the new compounds on PDK1 activity were investigated by ELISA assays also in GSCs. U87MG-derived CSCs were treated for the indicated times (0-120 min) with NSC medium containing DMSO (control), or 10 μM IIB35, SA23 or SA16. At the end of the treatment periods, the levels of AKT phosphorylation on Thr308 were evaluated using an ELISA assay, as above described. The data were expressed as the percentage of phosphorylated AKT relative to those of untreated cells (control), which were set at 100%, and were the mean values±SEM of three independent experiments performed in triplicate. The data are represented in FIG. 12. The significance of differences was performed using one-way ANOVA with Bonferroni post-test (* p<0.05, ** p<0.01, *** p<0.001 vs. control).

[3] abbreviates: read-out: IC50 (nM) PDK1 direct.

Read-outs that look alike come from different tables or passages of the source. Where only a bound is given, the exact number is not on record here.

Chain of PDK1 Direct kinase (O15530 whole entry): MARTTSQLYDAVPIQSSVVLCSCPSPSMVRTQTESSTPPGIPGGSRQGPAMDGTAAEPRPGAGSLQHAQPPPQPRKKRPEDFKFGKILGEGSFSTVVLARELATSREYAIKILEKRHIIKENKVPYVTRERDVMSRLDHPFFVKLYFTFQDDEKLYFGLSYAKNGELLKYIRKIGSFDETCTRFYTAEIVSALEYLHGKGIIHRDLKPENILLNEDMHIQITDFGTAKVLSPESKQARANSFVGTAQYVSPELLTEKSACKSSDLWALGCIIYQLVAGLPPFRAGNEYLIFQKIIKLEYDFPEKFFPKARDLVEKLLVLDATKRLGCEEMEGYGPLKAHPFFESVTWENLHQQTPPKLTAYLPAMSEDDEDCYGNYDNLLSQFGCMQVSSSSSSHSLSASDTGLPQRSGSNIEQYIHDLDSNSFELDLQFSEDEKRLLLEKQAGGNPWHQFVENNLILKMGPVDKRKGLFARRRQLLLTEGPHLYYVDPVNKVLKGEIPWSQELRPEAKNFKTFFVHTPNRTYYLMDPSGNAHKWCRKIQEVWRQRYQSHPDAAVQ

`O=C(CNC(=O)c1cccn(Cc2ccc(F)c(F)c2)c1=O)Nc1ccc2c(c1)/C(=C/c1cnc[nH]1)C(=O)N2` [IB35, (Z)—N-(2-((3-((1H-imidazol-5-yl)methylene)-2-oxoindolin-5-yl)amino)-2-oxoethyl)-1-(3,4-difluorobenzyl)-2-oxo-1,2-dihydro pyridine-3-carboxamide]: the inhibition at 10 µM at PDK1 Direct kinase was above 50%; in test [1], 54 ± 5.2%; in test [2], 80.4 ± 3.7%. The results for the IC50 on PDK1 Direct kinase (setting [3]), at PDK1 Direct kinase (read-out: PDK1 IC50) and in the test on U87MG cells (read-out: IC50 U87MG) were 112 nM, 112 nM and 450 ± 46.2 nM, respectively. For the same molecule, the “inhibition of U87MG cell proliferation” value in the test on U87MG cells (24 h, higher effect observed (1 nM-10 μM tested)) was 41%. The “time of peak of inhibition of (T308)AKT phosphorylation” value in test [1] is listed as 120 min. Also, the “inhibition of AKT phosphorylation at Thr308” value in test [1] and in test [2] was “significantly inhibited” throughout. Further, the “time of peak of inhibition of AKT phosphorylation at Thr308” value in test [2] was found to be 120 min.
For the molecule `O=C1Nc2ccc(NC(=O)[C@H](NC(=O)c3cccn(Cc4ccc(F)c(F)c4)c3=O)c3ccccc3)cc2/C1=C/c1ncc[nH]1` [SA23, (Z)—(R)—N-(2-((3-((1H-imidazol-2-yl)methylene)-2-oxoindolin-5-yl)amino)-2-oxo-1-phenylethyl)-1-(3,4-difluorobenzyl)-2-oxo-1,2-dihydropyridine-3-carboxamide], the inhibition at 10 µM was above 50% on PDK1 Direct kinase, 48.1 ± 5% in test [1] and 69 ± 4.5% in test [2]. For the same molecule, the IC50 on PDK1 Direct kinase (setting [3]) is 1520 nM; at PDK1 Direct kinase (read-out: PDK1 IC50), 1520 nM; in the test on U87MG cells (read-out: IC50 U87MG), 1170 ± 100 nM; with U87MG cells (read-out: IC50 U87MG cell proliferation) it was 1170 ± 100 nM. The “time of peak of inhibition of (T308)AKT phosphorylation” value in test [1] is 120 min. Besides, the “inhibition of AKT phosphorylation at Thr308” value in test [1] and in test [2] was “significantly inhibited” throughout. In addition, the “time of peak of inhibition of AKT phosphorylation at Thr308” value in test [2] came to 120 min.

As usually defined, the inhibition is the share of the control response that was lost under treatment.
